Source: US20140323300A1, “HERBICIDAL COMPOUNDS” (SYNGENTA LIMITED, priority 2011, published 2014)

Experiments:
Assay type in all cases: in vivo
[1] = test system: Alopecurus myosuroides (ALOMY); test: Pre-emergence glasshouse herbicide test; conditions: pre-emergence (sprayed after one day cultivation), 1000 g/h, evaluated after 13 days, five point scale
Method in brief: (§1)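 Damage was rated 13 days after treatment on a five-point scale (1 = 0–19%, 5 = 80–100%). The compound, formulated in 50:50 acetone/water with 0.5% Tween 20, was sprayed at 1000 g/h on pots one day (pre) or 8 days (post) after sowing, kept in a glasshouse at 24/16° C, 14 h light, 65% humidity.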

[2] = test system: Solanum nigrum (SOLNI); test: Pre-emergence glasshouse herbicide test; conditions: pre-emergence (sprayed after one day cultivation), 1000 g/h, evaluated after 13 days, five point scale
Method in brief: as §1

[3] = test system: Echinochloa crus-galli (ECHCG); test: Pre-emergence glasshouse herbicide test; conditions: pre-emergence (sprayed after one day cultivation), 1000 g/h, evaluated after 13 days, five point scale
Method in brief: as §1

[4] = test system: Amaranthus retoflexus (AMARE); test: Pre-emergence glasshouse herbicide test; conditions: pre-emergence (sprayed after one day cultivation), 1000 g/h, evaluated after 13 days, five point scale
Method in brief: as §1

[5] = test system: Setaria faberi (SETFA); test: Pre-emergence glasshouse herbicide test; conditions: pre-emergence (sprayed after one day cultivation), 1000 g/h, evaluated after 13 days, five point scale
Method in brief: as §1

[6] = test system: Ipomoea hederacea (IPOHE); test: Pre-emergence glasshouse herbicide test; conditions: pre-emergence (sprayed after one day cultivation), 1000 g/h, evaluated after 13 days, five point scale
Method in brief: as §1

[7] = test system: Alopecurus myosuroides (ALOMY); test: Post-emergence glasshouse herbicide test; conditions: post-emergence (sprayed after 8 days cultivation), 1000 g/h, evaluated after 13 days, five point scale
Method in brief: as §1

[8] = test system: Solanum nigrum (SOLNI); test: Post-emergence glasshouse herbicide test; conditions: post-emergence (sprayed after 8 days cultivation), 1000 g/h, evaluated after 13 days, five point scale
Method in brief: as §1

[9] = test system: Echinochloa crus-galli (ECHCG); test: Post-emergence glasshouse herbicide test; conditions: post-emergence (sprayed after 8 days cultivation), 1000 g/h, evaluated after 13 days, five point scale
Method in brief: as §1

[10] = test system: Amaranthus retoflexus (AMARE); test: Post-emergence glasshouse herbicide test; conditions: post-emergence (sprayed after 8 days cultivation), 1000 g/h, evaluated after 13 days, five point scale
Method in brief: as §1

[11] = test system: Setaria faberi (SETFA); test: Post-emergence glasshouse herbicide test; conditions: post-emergence (sprayed after 8 days cultivation), 1000 g/h, evaluated after 13 days, five point scale
Method in brief: as §1

[12] = test system: Ipomoea hederacea (IPOHE); test: Post-emergence glasshouse herbicide test; conditions: post-emergence (sprayed after 8 days cultivation), 1000 g/h, evaluated after 13 days, five point scale
Method in brief: as §1

SMILES | percentage damage caused to the plant, PRE Application ALOMY [1] | percentage damage caused to the plant, PRE Application SOLNI [2] | percentage damage caused to the plant, PRE Application ECHCG [3] | percentage damage caused to the plant, PRE Application AMARE [4] | percentage damage caused to the plant, PRE Application SETFA [5] | percentage damage caused to the plant, PRE Application IPOHE [6] | percentage damage caused to the plant, POST Application ALOMY [7] | percentage damage caused to the plant, POST Application SOLNI [8] | percentage damage caused to the plant, POST Application ECHCG [9] | percentage damage caused to the plant, POST Application AMARE [10] | percentage damage caused to the plant, POST Application SETFA [11] | percentage damage caused to the plant, POST Application IPOHE [12]
CCc1cnn(-c2ccc(C(F)(F)F)nc2S(C)(=O)=O)c(=O)c1O [Compound 1.036] | 5 (5=80-100%) | 5 (5=80-100%) | 5 (5=80-100%) | 5 (5=80-100%) | 5 (5=80-100%) | 5 (5=80-100%) | 5 (5=80-100%) | 5 (5=80-100%) | 5 (5=80-100%) | 5 (5=80-100%) | 5 (5=80-100%) | 5 (5=80-100%)
CCc1cnn(-c2ccc(Cl)cc2S(C)(=O)=O)c(=O)c1O [Compound 1.037] | 5 (5=80-100%) | 5 (5=80-100%) | 5 (5=80-100%) | 5 (5=80-100%) | 5 (5=80-100%) | 4 (4=60-79%) | 5 (5=80-100%) | 5 (5=80-100%) | 5 (5=80-100%) | 5 (5=80-100%) | 5 (5=80-100%) | 4 (4=60-79%)
CCc1ccc(-n2ncc(CC)c(O)c2=O)c(S(C)(=O)=O)c1 [Compound 1.038] | 4 (4=60-79%) | 5 (5=80-100%) | 5 (5=80-100%) | 5 (5=80-100%) | 5 (5=80-100%) | 5 (5=80-100%) | 4 (4=60-79%) | 5 (5=80-100%) | 5 (5=80-100%) | 5 (5=80-100%) | 5 (5=80-100%) | 5 (5=80-100%)
C[S+]([O-])c1cnn(-c2ccc(C(F)(F)F)cc2S(C)(=O)=O)c(=O)c1O (stereo not drawn) [Compound 1.041] | 1 (1=0-19%) | 5 (5=80-100%) | 4 (4=60-79%) | 5 (5=80-100%) | 2 (2=20-39%) | 4 (4=60-79%) | 1 (1=0-19%) | 5 (5=80-100%) | 4 (4=60-79%) | 5 (5=80-100%) | 2 (2=20-39%) | 4 (4=60-79%)
CS(=O)(=O)c1cc(C(F)(F)F)ccc1-n1ncc(S(C)(=O)=O)c(O)c1=O [Compound 1.042] | 1 (1=0-19%) | 2 (2=20-39%) | 1 (1=0-19%) | 2 (2=20-39%) | 1 (1=0-19%) | 1 (1=0-19%) | 1 (1=0-19%) | 2 (2=20-39%) | 1 (1=0-19%) | 2 (2=20-39%) | 1 (1=0-19%) | 1 (1=0-19%)
Cc1c(-n2ncc([S+](C)[O-])c(O)c2=O)ccc(S(C)(=O)=O)c1C1=NOCC1 (stereo not drawn) [Compound 1.043] | 1 (1=0-19%) | 4 (4=60-79%) | 3 (3=40-59%) | 5 (5=80-100%) | 3 (3=40-59%) | 3 (3=40-59%) | 1 (1=0-19%) | 4 (4=60-79%) | 3 (3=40-59%) | 5 (5=80-100%) | 3 (3=40-59%) | 3 (3=40-59%)
CC(=O)NC(C)(C)Cc1cnn(-c2ccc(C(F)(F)F)cc2S(C)(=O)=O)c(=O)c1O [Compound 1.044] | 1 (1=0-19%) | 4 (4=60-79%) | 5 (5=80-100%) | 5 (5=80-100%) | 2 (2=20-39%) | 4 (4=60-79%) | 1 (1=0-19%) | 4 (4=60-79%) | 5 (5=80-100%) | 5 (5=80-100%) | 2 (2=20-39%) | 4 (4=60-79%)
